Experimental data reported in patent publication US20250228890A1, “ANTI-CANCER FORMULATION COMPRISING SODIUM PENTABORATE, CURCUMIN AND PIPERINE FOR USE IN THE TREATMENT OF HEPATOCELLULAR CARCINOMA” (Yeditepe Universitesi, priority 2022, published 2025).

How the values were obtained:
HepG2 cells = test: MTS cell viability assay, HepG2 cells; format: cell-based, Human; details: 48 hours
Procedure: (§1) Human hepatocellular cancer cell lines, HepG2 (HB-8065, ATCC), Hep3B (HB-8064, ATCC) and HUVEC (CRL-1730) cells are cultured in a growth medium (2 mM L-glutamine, 100 U/ml penicillin, 100 µg/ml streptomycin) of Dulbecco's modified Eagle's medium (DMEM) containing 10% heat inactivated FBS in a humidified atmosphere at 37° C. with 5% CO2. Cells are passaged at 3-day intervals.
(§2) (NaB: B5H10NaO13), Curcumin (Sigma, C1386), and Piperine (Sigma, P49007). At the end of 24, 48 and 72 hours, cell viability were measured. Cell viability assay was performed by 3-(4,5-di-methyl-thiazol-2-yl)-5-(3-carboxy-methoxy-phenyl)-2-(4-sulfo-phenyl)-2H-tetrazolium (MTS) method (CellTiter96 AqueousOne Solution; Promega, Southampton, UK) following the manufacturer's protocol. After 2 hours of incubation time, the cell viability assay is conducted by measuring at 490 nm using an ELISA microplate reader (Bio-tek ELx800, USA). IC50 value for 48 hours was calculated.
(§3) The combination index (CI) is used to determine the degree of drug interaction. The concentration of inhibition in the combination is the sum of the ratio of the dose of each drug to the dose of each drug used alone. […] The formalization is as follows:
(§4) [formula] • (Dx)1, (Dx)2: Individual IC50 values of the substances • (D)1, (D)2: Concentrations of substances in the combination

Hep3B cells [1] = test: MTS cell viability assay, Hep3B cells; format: cell-based, Human; details: 48 hours
Procedure: as §1, §2, §3, §4

Hep3B cells [2] = details: literature study [20]; cited from earlier work

Compound | IC50 (HepG2 cells) [µM] | IC50 (Hep3B cells [1]) [µM] | proliferation of Hep3B cells (Hep3B cells [2]) | IC50 (HepG2 cells; Homo sapiens) [µM] | IC50 (Hep3B cells [1]; Homo sapiens) [µM]
sodium pentaborate pentahydrate | 7660 | 6560 | decreased the proliferation of Hep3B cells | – | –
COc1cc(/C=C/C(=O)CC(=O)/C=C/c2ccc(O)c(OC)c2)ccc1O [curcumin] | – | – | – | 44.8 | 41.4
O=C(/C=C/C=C/c1ccc2c(c1)OCO2)N1CCCCC1 [piperine] | – | – | – | > 150 | > 150
